Source: US12558345B2, “CHK1/2 inhibitors for use in the treatment of neuroblastomas and/or soft tissue sarcomas” (Eli Lilly and Company, priority 2015, dated 2026)
Where a name gives a salt, the structure may show the parent alone.

Experiments:
HT-29 cells = experiment: ECtfs (Two-Fold Sensitization) Assay; assay type: cell-based
Experimental: An inhibitor of CHK1 can potentiate the anti-proliferative activity of gemcitabine (or other cytotoxics) through abrogation of the intra-S phase checkpoint, resulting in sustained and increased DNA damage. The capacity for continued tumor cell proliferation after DNA damage can be analyzed by determining the ability of cells to replicate their DNA. […] In this assay, cells are treated with gemcitabine, and then with the compound of Example 2. Following a recovery period, cells are assayed for the ability to incorporate radioactive thymidine into DNA during S phase. The ECtfs parameter is a measure of the concentration of a CHK1 inhibitor necessary to reduce by half the GI90 concentration of gemcitabine, measured in this assay in the absence of CHK1 inhibition. HT-29 cells (obtained from ATCC), are grown in RPMI 1640 plus (Gibco™) 10% (v/v) heat inactivated FBS. These cells are plated at 1.3×10^3 per well on Corning Costar 96-well tissue culture plates. After plating the cells, the tissue culture plates are held at room temperature for 45 minutes, before returning to 37° C. Plates are incubated for 24 hours prior to gemcitabine addition. Before gemcitabine addition, medium is removed from all wells and replaced with 150 μL per well of fresh RPMI medium. Gemcitabine stocks at 10 mM are prepared in PBS. Gemcitabine dilutions were prepared at 4× concentrations in RPMI medium and added to wells at 50 μL per well. The highest final concentration of gemcitabine used is 80 μM and dilutions proceed by four-fold steps. Two hours later, gemcitabine-containing medium is removed from the wells and replaced with 150 μL per well of fresh RPMI medium. […] The volume of addition is 50 μL. Compound dilutions proceed by two-fold steps, starting at 5000 nM. […] Twenty μL of this solution is added to each well, yielding 1 µCi/well of ^3H-thymidine. Cells are labeled for twenty-two hours. The medium containing ^3H-thymidine is thoroughly removed from the wells. The plates are then frozen at −20° C., for several hours. To harvest the DNA containing incorporated ^3H-thymidine, plates are thawed for several minutes, and then 120 μL per well of 0.1 N NaOH is added to each well. Each plate is then incubated at 37° C., with slow mixing on a rotator, for 10 minutes. DNA is harvested with a Filtermate 196 Harvester (PerkinElmer) and collected on 96-well Unifilter GF/C plates (PerkinElmer #6005174). The wells of the tissue culture plate on which cells had been labeled are washed with water (5×). The Unifilter plate membranes are washed with an additional 4.5 mL per well (3×1.0 mL and finally a 1.5 mL wash). The Unifi is sealed with a Backseal adhesive sheet (PerkinElmer), and the 50 μL/well of MicroScint-20 (Perkin Elmer) is added. Each plate is then sealed with a Topseal clear adhesive sheet (PerkinElmer). Plates are counted on a Topcount scintillation counter (PerkinElmer), at 1 minute per well. ^3H-thymidine counts per minute (cpm) are exported into Prism (GraphPad) for analysis and plotting. […] For plotting the data in Prism, the gemcitabine concentrations are transformed to log values, and dose-response curves are fit by non-linear regression. Neither top nor bottom fits are constrained. The ECtfs value is 0.3 nM.

[1] = tested on: RD, SJCRH30, Saos-2 and RD-ES cell lines; experiment: In Vitro Response of Pediatric Cell Lines (western blot); assay type: cell-based; conditions: 24 hours at 5 and 50 nM
Experimental: Cellular lysates can be obtained from embryonal and alveolar rhabdomyosarcoma (RD and SJCRH30, respectively), osteosarcoma (Saos-2), and Ewing's sarcoma (RD-ES) cell lines treated with 5-(5-(2-(3-aminopropoxy)-6-methoxyphenyl)-1H-pyrazol-3-ylamino)pyrazine-2-carbonitrile methanesulfonic acid monohydrate (Example 5) for 24 hours at 5 and 50 nM final concentration.
A western blot can be run using the cellular lysates described above. […] Higher levels of DNA damage can be observed with CHK1 inhibition. Accordingly, the levels of gammaH2AX, a signal for DNA damage, increase upon treatment with 5-(5-(2-(3-aminopropoxy)-6-methoxyphenyl)-1H-pyrazol-3-ylamino)pyrazine-2-carbonitrile methanesulfonic acid monohydrate (Example 5).

[2] = tested on: CTG-0816 EWS patient-derived xenograft; experiment: Xenograft Tumor Model CTG-0816; assay type: in vivo, mouse; conditions: comparator day 28, p-value 0.069
Experimental: (§1) The efficacy of 5-(5-(2-(3-aminopropoxy)-6-methoxyphenyl)-1H-pyrazol-3-ylamino)pyrazine-2-carbonitrile methanesulfonic acid monohydrate is measurable in vivo in mouse models of neuroblastomas and human pediatric and adult sarcomas. 5-(5-(2-(3-Aminopropoxy)-6-methoxyphenyl)-1H-pyrazol-3-ylamino)pyrazine-2-carbonitrile methanesulfonic acid monohydrate (10 mg/kg) can be administered subcutaneously to nude mice bearing either cell-derived xenografts (CDX) or patient-derived xenografts (PDX) of human rhabdomyosarcoma, desmoplastic small round cell tumor (DSRCT), osteosarcoma, and Ewing's sarcoma using a 3 day on, 4 day off b.i.d. dosing schedule. Tumor volume and body weight can be measured two times per week. Tumor-specific parameters can be evaluated by immumohistochemistry. […]
(§2) For all “ST” models (encompassing RMS and LMS), patient-derived xenografts are established from viable human tumor tissue and are serially passaged in animals a limited number of times to maintain tumor heterogeneity. […] Tumor response is determined by tumor volume measurement performed twice per week during the course of treatment.

[3] = tested on: CTG-1116 RMS patient-derived xenograft; experiment: Xenograft Tumor Model CTG-1116; assay type: in vivo, mouse; conditions: comparator day 17, p-value <0.001
Experimental: as §1, §2

[4] = tested on: CTG-0243 OS patient-derived xenograft; experiment: Xenograft Tumor Model CTG-0243; assay type: in vivo, mouse; conditions: comparator day 22, p-value 0.089
Experimental: as §1, §2

[5] = tested on: CTG-0926 DSRCT patient-derived xenograft; experiment: Xenograft Tumor Model CTG-0926; assay type: in vivo, mouse; conditions: comparator day 28, p-value <0.001
Experimental: as §1, §2

SMILES: COc1cccc(OCCCN)c1-c1cc(Nc2cnc(C#N)cn2)n[nH]1 [Example 2, 5-(5-(2-(3-Aminopropoxy)-6-methoxyphenyl)-1H-pyrazol-3-ylamino)pyrazine-2-carbonitrile dihydrogen chloride salt]
- decrease of the EC50 of gemcitabine (HT-29 cells; HT29 cells, 3 nM of the compound of Example 2): 7 fold
- ECtfs value (HT-29 cells; HT-29 cells, concentration necessary to reduce by half the GI90 concentration of gemcitabine, 3H-thymidine incorporation): 0.3 nM
- effect on the proliferation of HT29 cells (HT-29 cells; compound alone, 3 nM): little effect

SMILES: COc1cccc(OCCCN)c1-c1cc(Nc2cnc(C#N)cn2)n[nH]1 [Example 5, 5-(5-(2-(3-Aminopropoxy)-6-methoxyphenyl)-1H-pyrazol-3-ylamino)pyrazine-2-carbonitrile methanesulfonic acid monohydrate]
- CHK1 protein levels [1]: do not change
- levels of gammaH2AX (signal for DNA damage) [1]: increase
- levels of phospho-AKT [1]: do not appear to change
- phospho-CHK1 (S345) levels [1]: increase
- levels of phospho-ERK 1/2 (T202/Y204) ([1]; RD-ES non-responding): increase in three out of four cell lines
- phospho-hnRNP-C levels ([1]; unaffected in the RD-ES cell line): increase
- % T/C [2]: 44%
- % T/C [3]: 8%
- % T/C [4]: 43%
- % Regression [5]: −76%
